Measured values as given in PubChem BioAssay (NCI).
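1) Cells in 96-well plates. 2) Compound, 48 h, 5 concentrations. 3) Linear interpolation between surrounding doses. 4) Unreached endpoint = highest concentration. At the GI50, growth is halved. TGI marks complete inhibition of growth.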

Assays:
Test in all cases: NCI tumour cell line growth inhibition, 48 h
[1] = test system: 786-0 renal
[2] = test system: A498 renal
[3] = test system: A549 NSCLC
[4] = test system: ACHN renal
[5] = test system: BT-549 breast
[6] = test system: CCRF-CEM leukemia
[7] = test system: COLO 205 colon
[8] = test system: DU-145 prostate
[9] = test system: EKVX NSCLC
[10] = test system: HCC-2998 colon
[11] = test system: HCT-116 colon
[12] = test system: HCT-15 colon
[13] = test system: HL-60(TB) leukemia
[14] = test system: HOP-62 NSCLC
[15] = test system: HOP-92 NSCLC
[16] = test system: HT29 colon
[17] = test system: IGROV1 ovarian
[18] = test system: K-562 leukemia
[19] = test system: KM12 colon
[20] = test system: LOX IMVI melanoma
[21] = test system: M14 melanoma
[22] = test system: MALME-3M melanoma
[23] = test system: MCF7 breast
[24] = test system: MDA-MB-231 breast
[25] = test system: MDA-MB-435
[26] = test system: MOLT-4 leukemia
[27] = test system: NCI-H226 lung
[28] = test system: NCI-H23 lung
[29] = test system: NCI-H460 lung
[30] = test system: NCI-H522 lung
[31] = test system: NCI/ADR-RES ovarian
[32] = test system: OVCAR-3 ovarian
[33] = test system: OVCAR-4 ovarian
[34] = test system: OVCAR-5 ovarian
[35] = test system: OVCAR-8 ovarian
[36] = test system: PC-3 prostate
[37] = test system: RPMI-8226 leukemia
[38] = test system: RXF 393 renal
[39] = test system: SF-268 CNS
[40] = test system: SF-295 CNS
[41] = test system: SF-539 CNS
[42] = test system: SK-MEL-2 melanoma
[43] = test system: SK-MEL-28 melanoma
[44] = test system: SK-MEL-5 melanoma
[45] = test system: SK-OV-3 ovarian
[46] = test system: SN12C renal
[47] = test system: SNB-19 CNS
[48] = test system: SNB-75 CNS
[49] = test system: SR leukemia
[50] = test system: SW-620 colon
[51] = test system: T-47D breast
[52] = test system: TK-10 renal
[53] = test system: U251 CNS
[54] = test system: UACC-257 melanoma
[55] = test system: UACC-62 melanoma
[56] = test system: UO-31 renal

`O=S(=O)(N=C1C(Cl)=C(Cl)C(=NS(=O)(=O)c2ccccc2)C(Cl)=C1Cl)c1ccccc1` was tested, and the GI50 [1] was 22.7 µM, the TGI [1] was 44.1 µM and the GI50 [2] was 15.9 µM. It also gave a TGI [2] of 50.9 µM, a GI50 [3] of 32.3 µM and a TGI [3] greater than 100 µM. For the same molecule, the GI50 [4] was 20.5 µM, the TGI [4] was 65 µM and the GI50 [5] was 17.3 µM. For the same molecule, the TGI [5] was 37.5 µM, the GI50 [6] was 14.8 µM and the TGI [6] was 90.9 µM. The GI50 [7] was 23.9 µM, the TGI [7] was 88.8 µM and the GI50 [8] was 18.5 µM. For the same molecule, the TGI [8] was 60.9 µM, the GI50 [9] was 31.5 µM and the TGI [9] was greater than 100 µM. The GI50 [10] was 26.6 µM, the TGI [10] was 64.6 µM and the GI50 [11] was 13.6 µM. It also gave a TGI [11] of 29.1 µM, a GI50 [12] of 24.5 µM and a TGI [12] greater than 100 µM. For the same molecule, the GI50 [13] was 16.4 µM, the TGI [13] was greater than 100 µM and the GI50 [14] was 27.5 µM. The TGI [14] was 80.3 µM, the GI50 [15] was 56.9 µM and the TGI [15] was greater than 100 µM. It also gave a GI50 [16] of 15.4 µM, a TGI [16] of 49.2 µM and a GI50 [17] of 18.7 µM. The TGI [17] was 40.7 µM, the GI50 [18] was 21.4 µM and the TGI [18] was greater than 100 µM. It also gave a GI50 [19] of 12.2 µM, a TGI [19] of 25.6 µM and a GI50 [20] of 15.4 µM. For the same molecule, the TGI [20] was 43.1 µM, the GI50 [21] was 16.5 µM and the TGI [21] was 34.7 µM. It also gave a GI50 [22] of 18.5 µM, a TGI [22] of 56.4 µM and a GI50 [23] of 18 µM. It also gave a TGI [23] greater than 100 µM, a GI50 [24] of 21.9 µM and a TGI [24] greater than 100 µM. For the same molecule, the GI50 [25] was 20.1 µM, the TGI [25] was 68.3 µM and the GI50 [26] was 27 µM. For the same molecule, the TGI [26] was greater than 100 µM, the GI50 [27] was 21.6 µM and the TGI [27] was 56.2 µM. It also gave a GI50 [28] of 25.6 µM, a TGI [28] greater than 100 µM and a GI50 [29] of 17.4 µM. For the same molecule, the TGI [29] was 36.7 µM, the GI50 [30] was 11.1 µM and the TGI [30] was 29.7 µM. The GI50 [31] was 26.5 µM, the TGI [31] was greater than 100 µM and the GI50 [32] was 9.53 µM. The TGI [32] was 26 µM, the GI50 [33] was 22.1 µM and the TGI [33] was greater than 100 µM. The GI50 [34] was 45.2 µM, the TGI [34] was greater than 100 µM and the GI50 [35] was 17.7 µM. The TGI [35] was 50.6 µM, the GI50 [36] was 24.3 µM and the TGI [36] was greater than 100 µM. The GI50 [37] was 23.9 µM, the TGI [37] was greater than 100 µM and the GI50 [38] was 15.8 µM. For the same molecule, the TGI [38] was 30.9 µM, the GI50 [39] was 16 µM and the TGI [39] was 42.2 µM. It also gave a GI50 [40] of 29.5 µM, a TGI [40] of 93.8 µM and a GI50 [41] of 45.6 µM. It also gave a TGI [41] greater than 100 µM, a GI50 [42] of 27.5 µM and a TGI [42] greater than 100 µM. The GI50 [43] was 20.6 µM, the TGI [43] was 78.1 µM and the GI50 [44] was 13.9 µM. For the same molecule, the TGI [44] was 36.5 µM, the GI50 [45] was 43.2 µM and the TGI [45] was greater than 100 µM. The GI50 [46] was 29.9 µM, the TGI [46] was greater than 100 µM and the GI50 [47] was 38.2 µM. For the same molecule, the TGI [47] was greater than 100 µM, the GI50 [48] was 23.5 µM and the TGI [48] was greater than 100 µM. For the same molecule, the GI50 [49] was 12.7 µM, the TGI [49] was greater than 100 µM and the GI50 [50] was 13.4 µM. For the same molecule, the TGI [50] was 28 µM, the GI50 [51] was 23.8 µM and the TGI [51] was greater than 100 µM. For the same molecule, the GI50 [52] was 24.9 µM, the TGI [52] was 61.9 µM and the GI50 [53] was 19.3 µM. It also gave a TGI [53] of 54 µM, a GI50 [54] of 24 µM and a TGI [54] of 86.3 µM. For the same molecule, the GI50 [55] was 13.3 µM, the TGI [55] was 38.4 µM and the GI50 [56] was 18.8 µM. For the same molecule, the TGI [56] was 48.9 µM.
